Test results: paper PMC6516726 (ACS Catalysis, 2018)
Read-outs that look alike come from different tables or passages of the source.

Experiments:
PETNR = biological target: PETNR; set-up: method as in earlier work; conditions: PETNR−coenzyme analogue complex; cited from earlier work
L25A PETNR = L25A PETNR (Enterobacter cloacae, UniProt P71278, L26A); conditions: for kobs1 / kobs2 / A2 (amplitude of kobs2 out of total absorbance change): 10 mM NADPH or 25 mM NADH, pH 7.0
L25I PETNR = L25I PETNR (Enterobacter cloacae, UniProt P71278, L26I); conditions: for kobs1 / A2 (amplitude of kobs2 out of total absorbance change) / kobs2: 10 mM NADPH or 25 mM NADH, pH 7.0
Sequence of L25I PETNR (P71278 entry or part of it L26I): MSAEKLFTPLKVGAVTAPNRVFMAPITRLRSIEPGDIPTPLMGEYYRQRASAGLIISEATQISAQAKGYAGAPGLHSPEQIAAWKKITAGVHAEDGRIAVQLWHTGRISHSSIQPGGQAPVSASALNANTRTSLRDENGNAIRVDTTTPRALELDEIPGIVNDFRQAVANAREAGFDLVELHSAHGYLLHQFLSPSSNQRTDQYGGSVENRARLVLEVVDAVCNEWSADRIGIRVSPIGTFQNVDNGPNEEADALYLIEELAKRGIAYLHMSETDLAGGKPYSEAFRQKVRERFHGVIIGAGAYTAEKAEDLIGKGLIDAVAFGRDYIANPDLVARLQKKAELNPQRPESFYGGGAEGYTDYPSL

WT PETNR [1] = biological target: T1, WT PETNR (Enterobacter cloacae, UniProt P71278); assay: pH dependence of FMN reduction of WT PETNR in MTEN buffer; type: biochemical, Enterobacter Cloacae PB2; set-up: made in house; conditions: for Isotope effect on ΔCp⧧ / Isotope effect on ΔHT0⧧ / Isotope effect on ΔST0⧧: (R)-[4-2H]-NADPH - NADPH
T1 sequence (P71278 entry or part of it): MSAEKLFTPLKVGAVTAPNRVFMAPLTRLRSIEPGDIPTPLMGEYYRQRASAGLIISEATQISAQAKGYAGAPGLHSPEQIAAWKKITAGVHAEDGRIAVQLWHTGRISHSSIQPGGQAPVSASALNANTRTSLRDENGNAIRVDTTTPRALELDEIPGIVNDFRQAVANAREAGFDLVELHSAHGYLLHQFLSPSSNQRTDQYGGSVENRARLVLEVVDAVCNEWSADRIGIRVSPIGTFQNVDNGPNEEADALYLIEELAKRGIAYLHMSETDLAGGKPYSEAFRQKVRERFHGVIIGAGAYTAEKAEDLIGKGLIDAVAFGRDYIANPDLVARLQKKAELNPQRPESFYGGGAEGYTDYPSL
Protocol: (R)-[4-2H]-NADPH at pH 6, pH 7 and pH9 (A) and the corresponding temperature dependencies of the observed primary kinetic isotope effects (B). The measurements were performed in MTEN buffer (50 mM MES, 25 mM Tris, 25 mM ethanola-mine, and 100 mM NaCl), which has a useful buffering capacity and minimal change in ionic strength over the pH range 6-9 in which PETNR is stable; we attempted testing PETNR in pH 5 as well, but the enzyme is unstable at this pH. The observed rate constants of FMN reduction at pH 7 in MTEN buffer are essentially the same to those measured in 50 mM potassium phosphate buffer, pH 7 and similar observation are valid for the KIEs values (Table S3).The rate of FMN reduction is essentially insensitive to pH across the whole temperature range (5-40 °C), and also that KIEs values are essentially not affected by changes in pH (the rate of FMN reduction by (R)-[4-2H]-NADPH is independent of pH as well across all temperatures studied; see Table S3 for extracted thermodynamic parameters). Although these experiments cannot completely exclude any kinetic […]
of H-transfer and protonation (which would lead to pH-dependent rates) which makes it very likely that the observed rate are reporting directly on the H-transfer step.
Table S3. Extracted Thermodynamic Parameters from pH Dependence Studies.
(kJ mol-1) (J mol-1 K-1) (kJ mol-1 K-1)

WT PETNR [2] = biological target: T1, WT PETNR; assay: Stopped-flow FMN reduction (reductive half-reaction, hydride transfer) of WT PETNR by coenzyme; conditions: for kobs1 / A2 (amplitude of kobs2 out of total absorbance change) / kobs2: 10 mM NADPH or 25 mM NADH, pH 7.0
[3] = T0 = 298 K, fit of kobs1 (5–40 °C) to eq 1
[4] = deuterated minus protiated coenzyme, T0 = 298 K

Sequence of L25A PETNR (P71278 entry or part of it L26A): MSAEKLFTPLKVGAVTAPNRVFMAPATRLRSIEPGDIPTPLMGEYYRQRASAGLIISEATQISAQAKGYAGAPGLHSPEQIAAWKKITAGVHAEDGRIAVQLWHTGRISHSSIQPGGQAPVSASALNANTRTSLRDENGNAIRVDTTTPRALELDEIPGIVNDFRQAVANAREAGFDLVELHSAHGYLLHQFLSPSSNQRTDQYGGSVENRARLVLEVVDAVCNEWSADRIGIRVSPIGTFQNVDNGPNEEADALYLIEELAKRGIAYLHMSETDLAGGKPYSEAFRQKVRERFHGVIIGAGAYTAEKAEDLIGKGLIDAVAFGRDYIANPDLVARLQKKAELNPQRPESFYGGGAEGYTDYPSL

SMILES: NC(=O)C1=CN([C@@H]2O[C@H](COP(=O)(O)OP(=O)(O)OC[C@H]3O[C@@H](n4cnc5c(N)ncnc54)[C@H](OP(=O)(O)O)[C@@H]3O)[C@@H](O)[C@H]2O)CCC1 [NADPH4]
- Kd (PETNR): 130 µM

SMILES: [2H][C@@H]1C=CN([C@@H]2O[C@H](COP(=O)(O)OP(=O)(O)OC[C@H]3O[C@@H](n4cnc5c(N)ncnc54)[C@H](OP(=O)(O)O)[C@@H]3O)[C@@H](O)[C@H]2O)C=C1C(N)=O [(R)-[4-^2H]-NADPH]
- kobs1 (L25A PETNR; 5 °C): 2.37 ± 0.01 s⁻¹
- kobs1 (L25A PETNR; 10 °C): 3.33 ± 0.03 s⁻¹
- kobs1 (L25A PETNR; 15 °C): 4.59 ± 0.03 s⁻¹
- kobs1 (L25A PETNR; 20 °C): 6.14 ± 0.04 s⁻¹
- kobs1 (L25A PETNR; 25 °C): 8.01 ± 0.22 s⁻¹
- kobs2 (L25A PETNR; 25 °C): 0.03 ± 0.03 s⁻¹
- A2 (amplitude of kobs2 out of total absorbance change) (L25A PETNR; 30 °C): 5.83 ± 0.60%
- kobs1 (L25A PETNR; 30 °C): 10.24 ± 0.05 s⁻¹
- kobs2 (L25A PETNR; 30 °C): 0.16 ± 0.03 s⁻¹
- A2 (amplitude of kobs2 out of total absorbance change) (L25A PETNR; 35 °C): 14.06 ± 0.45%
- kobs1 (L25A PETNR; 35 °C): 11.89 ± 0.07 s⁻¹
- kobs2 (L25A PETNR; 35 °C): 0.17 ± 0.01 s⁻¹
- A2 (amplitude of kobs2 out of total absorbance change) (L25A PETNR; 40 °C): 31.19 ± 1.07%
- kobs1 (L25A PETNR; 40 °C): 12.39 ± 0.22 s⁻¹
- kobs2 (L25A PETNR; 40 °C): 0.26 ± 0.02 s⁻¹
- ΔCp^⧧ (L25A PETNR; [3]): –0.78 ± 0.15 kJ mol^–1 K^–1
- ΔHT0^⧧ (L25A PETNR; [3]): 31.9 ± 1.1 kJ mol^–1
- ΔST0^⧧ (L25A PETNR; [3]): –120.5 ± 3.7 J mol^–1 K^–1
- Isotope Effect on ΔCp^⧧ (L25A PETNR; [4]): 0.14 ± 0.19 kJ mol^–1 K^–1
- Isotope Effect on ΔHT0^⧧ (L25A PETNR; [4]): 8.6 ± 1.27 kJ mol^–1
- Isotope Effect on ΔST0^⧧ (L25A PETNR; [4]): 13.3 ± 5.6 J mol^–1 K^–1
- kobs1 (L25I PETNR; 5 °C): 1.26 ± 0.02 s⁻¹
- kobs1 (L25I PETNR; 15 °C): 2.46 ± 0.01 s⁻¹
- A2 (amplitude of kobs2 out of total absorbance change) (L25I PETNR; 20 °C): 2.63 ± 0.15%
- kobs1 (L25I PETNR; 20 °C): 3.42 ± 0.03 s⁻¹
- kobs2 (L25I PETNR; 20 °C): 0.19 ± 0.04 s⁻¹
- A2 (amplitude of kobs2 out of total absorbance change) (L25I PETNR; 25 °C): 3.59 ± 0.27%
- kobs1 (L25I PETNR; 25 °C): 4.50 ± 0.02 s⁻¹
- kobs2 (L25I PETNR; 25 °C): 0.27 ± 0.03 s⁻¹
- kobs1 (L25I PETNR; 30 °C): 5.72 ± 0.06 s⁻¹
- kobs2 (L25I PETNR; 30 °C): 0.28 ± 0.01 s⁻¹
- A2 (amplitude of kobs2 out of total absorbance change) (L25I PETNR; 35 °C): 7.05 ± 0.36%
- kobs1 (L25I PETNR; 35 °C): 7.20 ± 0.07 s⁻¹
- kobs2 (L25I PETNR; 35 °C): 0.42 ± 0.07 s⁻¹
- A2 (amplitude of kobs2 out of total absorbance change) (L25I PETNR; 40 °C): 12.46 ± 0.45%
- kobs1 (L25I PETNR; 40 °C): 8.66 ± 0.09 s⁻¹
- ΔCp^⧧ (L25I PETNR; [3]): –0.53 ± 0.09 kJ mol^–1 K^–1
- ΔHT0^⧧ (L25I PETNR; [3]): 36.7 ± 0.5 kJ mol^–1
- Isotope Effect on ΔCp^⧧ (L25I PETNR; [4]): –0.11 ± 0.11 kJ mol^–1 K^–1
- Isotope Effect on ΔHT0^⧧ (L25I PETNR; [4]): 6.3 ± 0.7 kJ mol^–1
- Isotope Effect on ΔST0^⧧ (L25I PETNR; [4]): 5.4 ± 2.5 J mol^–1 K^–1
- ΔCp⧧ (WT PETNR [1]; pH 6, MTEN buffer): -0.57 ± 0.15 kJ mol-1 K-1
- ΔHT0⧧ (WT PETNR [1]; pH 6, MTEN buffer): 7.89 ± 0.22 kcal/mol
- Isotope effect on ΔCp⧧ (WT PETNR [1]; pH 6, MTEN buffer): 0.01 ± 0.18 kJ mol-1 K-1
- Isotope effect on ΔHT0⧧ (WT PETNR [1]; pH 6, MTEN buffer): 1.39 ± 0.263 kcal/mol
- Isotope effect on ΔST0⧧ (WT PETNR [1]; pH 6, MTEN buffer): 3.7 ± 3.5 J mol-1 K-1
- ΔCp⧧ (WT PETNR [1]; pH 7, MTEN buffer): -0.54 ± 0.09 kJ mol-1 K-1
- ΔHT0⧧ (WT PETNR [1]; pH 7, MTEN buffer): 8.27 ± 0.12 kcal/mol
- ΔST0⧧ (WT PETNR [1]; pH 7, MTEN buffer): -115.0 ± 1.8 J mol-1 K-1
- Isotope effect on ΔCp⧧ (WT PETNR [1]; pH 7, MTEN buffer): 0.07 ± 0.12 kJ mol-1 K-1
- Isotope effect on ΔHT0⧧ (WT PETNR [1]; pH 7, MTEN buffer): 1.67 ± 0.17 kcal/mol
- Isotope effect on ΔST0⧧ (WT PETNR [1]; pH 7, MTEN buffer): 7.7 ± 2.4 J mol-1 K-1
- ΔCp⧧ (WT PETNR [1]; pH 9, MTEN buffer): -0.48 ± 0.07 kJ mol-1 K-1
- ΔHT0⧧ (WT PETNR [1]; pH 9, MTEN buffer): 8.48 ± 0.096 kcal/mol
- ΔST0⧧ (WT PETNR [1]; pH 9, MTEN buffer): -111.9 ± 1.3 J mol-1 K-1
- Isotope effect on ΔCp⧧ (WT PETNR [1]; pH 9, MTEN buffer): -0.03 ± 0.13 kJ mol-1 K-1
- Isotope effect on ΔHT0⧧ (WT PETNR [1]; pH 9, MTEN buffer): 1.58 ± 0.19 kcal/mol
- Isotope effect on ΔST0⧧ (WT PETNR [1]; pH 9, MTEN buffer): 6.7 ± 2.6 J mol-1 K-1
- kobs1 (WT PETNR [2]; 5 °C): 1.51 ± 0.01 s⁻¹
- kobs1 (WT PETNR [2]; 10 °C): 2.13 ± 0.01 s⁻¹
- kobs1 (WT PETNR [2]; 15 °C): 2.90 ± 0.01 s⁻¹
- kobs1 (WT PETNR [2]; 20 °C): 3.95 ± 0.02 s⁻¹
- kobs1 (WT PETNR [2]; 25 °C): 5.20 ± 0.04 s⁻¹
- kobs1 (WT PETNR [2]; 30 °C): 6.59 ± 0.04 s⁻¹
- A2 (amplitude of kobs2 out of total absorbance change) (WT PETNR [2]; 35 °C): 2.54 ± 0.53%
- kobs1 (WT PETNR [2]; 35 °C): 8.48 ± 0.03 s⁻¹
- kobs2 (WT PETNR [2]; 35 °C): 1.22 ± 0.45 s⁻¹
- A2 (amplitude of kobs2 out of total absorbance change) (WT PETNR [2]; 40 °C): 3.41 ± 0.65%
- kobs1 (WT PETNR [2]; 40 °C): 9.96 ± 0.18 s⁻¹
- kobs2 (WT PETNR [2]; 40 °C): 1.11 ± 0.24 s⁻¹
- ΔCp^⧧ (WT PETNR [2]; [3]): –0.32 ± 0.04 kJ mol^–1 K^–1
- ΔHT0^⧧ (WT PETNR [2]; [3]): 36.8 ± 0.3 kJ mol^–1
- Isotope Effect on ΔCp^⧧ (WT PETNR [2]; [4]): 0.18 ± 0.06 kJ mol^–1 K^–1
- Isotope Effect on ΔHT0^⧧ (ΔΔHT0^⧧) (WT PETNR [2]; [4]): 6.4 ± 0.4 kJ mol^–1
- Isotope Effect on ΔST0^⧧ (WT PETNR [2]; [4]): 5.8 ± 1.5 J mol^–1 K^–1

SMILES: NC(=O)C1=CN([C@@H]2O[C@H](COP(=O)(O)OP(=O)(O)OC[C@H]3O[C@@H](n4cnc5c(N)ncnc54)[C@H](O)[C@@H]3O)[C@@H](O)[C@H]2O)CCC1 [NADH4, 1,4,5,6-tetrahydro-NAD]
- Kd (PETNR): 140 µM
